Patent publication US12473249B2, “Aromatic compounds and pharmaceutical uses thereof” (BASF AS, priority 2018, dated 2025)

Assays:
Type in all cases: in vivo, mouse
[1] = tested on: hepatic expression of key genes; test: Hepatic target gene expression via RNA sequencing in ob/ob AMLN mice; settings: 0.3 mmol/kg bw day, 4 weeks treatment
Experimental: (§1) ob/ob mice are consistently fibrosis (liver) prone when cholesterol (2%) and 40% fat (containing 18% trans-fatty acids) and 20% fructose are added to a high-caloric diet (i.e., AMLN diet). ob/ob mice on AMLN diet (termed ‘ob/ob AMLN mice’) develop steatohepatitis and fibrosis within a shorter timeframe (<12 weeks) compared with wild-type C57BL/6 mice (AMLN mice) fed the same diet. ob/ob AMLN mice provide an obese diet-induced model of NASH that also allows the study of effects on glycemic control.
(§2) Thirty male ob/ob mice (5 weeks old) were fed the AMLN diet for 15 weeks then randomised into 3 groups of 10 mice/group to receive Compound B or Compound A (both at 0.3 mmol/kg bw day) or no treatment (vehicle) for a further 4 weeks. Assessment of the hepatic expression of key genes regulating plasma lipid concentrations (LDLr), hepatic fibrosis (collA1), bile acid transport/re-uptake (Slc51b and Slc10a2) and inflammation (CD68) was made via RNA sequencing at 4 weeks. To assess the effects of Compound B and Compound A on glycemic control, an oral glucose tolerance test (OGTT) was also performed at 3 weeks. An additional group of mice (n=5) were also treated with a PPAR-γ agonist (pioglitazone, 30 mg/kg bw day) was also included to compare effects upon bodyweight.

C57BL/6 mice = test: Hepatic steatosis in PN-fed C57BL/6 mice intravenously administered saline, Intralipid or Omegaven
Experimental: Male C57BL/6 mice, 6 to 8 weeks old at initiation of the experiments, were used for all experiments. One group was fed an ad libitum diet of standard rodent chow and water. Six other groups (10 mice per group) were fed a parenteral nutrition (PN) solution ab libitum as described above.
The PN-fed groups received tail vein injections every other day of saline, Omegaven® dosed at 2.4 g/kg/day, or Intralipid® (commercial soybean oil lipid emulsion) dosed at 2.4 g/kg/day and were treated with orogastric gavage administration (every other day) of either MCT or Compound A dosed at 0.6 mmol/kg bw. Intravenous saline was isovolumetric to Intralipid® groups. MCT orogastric gavage was isovolumetric to Compound A treatment (200 μl). The 6 experimental PN diet groups are listed below: • (1) Saline (intravenous)+PN+MCT (gavage) • (2) Intralipid® (intravenous)+PN+MCT (gavage) • (3) Omegaven® (intravenous)+PN+MCT (gavage) • (4) Saline (intravenous)+PN+Compound A (gavage) • (5) Intralipid® (intravenous)+PN+Compound A (gavage) • (6) Omegaven® (intravenous)+PN+Compound A (gavage)

ob/ob AMLN mice = test: Glycemic control (oral glucose tolerance test, fasting glucose and insulin) in ob/ob AMLN mice; settings: 0.3 mmol/kg bw day
Experimental: as §1
as §2, with “To assess the effects of Compound B and Compound A on glycemic control, an oral glucose tolerance test (OGTT) was also performed at 3 weeks.” left out

[2] = PN diet, 19 days, 0.6 mmol/kg bw by gavage, FIGS. 20-21

In the case of `CCCCCOc1cccc(C(=O)O)c1C` [Compound A, 2-methyl-3-(pentyloxy)benzoic acid], the “hepatic expression of Coll al (collagen1a1) versus vehicle” value ([1]; FIG. 5) is reported as “significantly reduce”, the “hepatic expression of Slc10a2 versus vehicle” value ([1]; FIG. 6) is reported as “significantly decreases” and the “hepatic expression of Slc51b versus vehicle” value ([1]; FIG. 7) is reported as “significantly decreases”. For the same compound, the “hepatic expression of ABCC2 versus vehicle” value ([1]; FIG. 8) was “significantly increases”, the “hepatic expression of CYP7A1” value ([1]; FIG. 9) was “reduces” and the “hepatic expression of CD68 versus vehicle” value ([1]; FIG. 10) was “significantly decreases”. For the same compound, the “expression of hepatic LDLr versus vehicle” value ([1]; FIG. 12) was “significantly increase”, the “development of steatosis induced by an oral PN diet (H&E stain in isolated liver sections)” value (C57BL/6 mice; PN diet with intravenous saline, Intralipid or Omegaven, 0.6 mmol/kg bw by gavage every other day, FIGS. 22-25) was “prevented the development of steatosis” and the “development of steatosis (Oil Red O stain in isolated liver sections)” value (C57BL/6 mice; PN diet with intravenous saline, Intralipid or Omegaven, 0.6 mmol/kg bw by gavage every other day, FIGS. 26-29) was “prevented the development of steatosis”. For the same compound, the “quantification of lipid accumulation (Oil Red O) as compared with the chow-fed control” value (C57BL/6 mice; PN diet with intravenous saline, Intralipid or Omegaven, 0.6 mmol/kg bw by gavage, FIG. 30) was “prevented the development of steatosis”, the “normalized body mass vs any other experimental group” value (C57BL/6 mice; [2]) was “not significantly different” and the “normalized kidney mass vs any other experimental group” value (C57BL/6 mice; [2]) was “not significantly different”. For the same compound, the “normalized liver mass vs any other experimental group” value (C57BL/6 mice; [2]) was “not significantly different”, the “normalized spleen mass vs any other experimental group” value (C57BL/6 mice; [2]) was “not significantly different” and the “total plasma glucose (area-under-the-curve from 0-240 mins) versus vehicle in response to an oral glucose load” value (ob/ob AMLN mice; after 3 weeks treatment, FIG. 1) was “significantly reduce”. For the same compound, the “plasma glucose at 30- and 60-mins versus vehicle in response to an oral glucose load” value (ob/ob AMLN mice; after 3 weeks treatment, FIG. 2) was “significantly reduce”, the “fasting plasma insulin versus vehicle” value (ob/ob AMLN mice; after 4 weeks treatment, FIG. 3) was “reduce” and the “fasting plasma glucose versus vehicle” value (ob/ob AMLN mice; after 4 weeks treatment, FIG. 4) was “significantly reduce”.
